# Earlier results, collected in patent US20150065426A1, “Testosterone Booster Transdermal Compositions” (Professional Compounding Centers Of America, priority 2013, published 2015).
# How the values were obtained:
# [1] = after the use of anastrozole for about 7 days
# [2] = men with elevated estradiol / hormone disorders
structure (smiles),measurement,setting,value
"CC(C)(C#N)c1cc(Cn2cncn2)cc(C(C)(C)C#N)c1 [anastrozole, Anastrozole]",increase of natural testosterone levels,[1],≤ 60%
same,estradiol levels,[2],significant decrease
